Reference: patent US20260131016A1, “NOVEL AURISTATIN ANALOGS AND IMMUNOCONJUGATES THEREOF” (ADCENTRX THERAPEUTICS INC., priority 2021, published 2026)

Legend:
[1] = system: HCC1954 breast ductal carcinoma; test: Cell viability (Cell Titer Glo 2.0) in HCC1954, 120 hours; type: cell-based; conditions: for IC50: Homo sapiens, HCC1954, 120 h, read-out: IC50 (nM), in vitro potency in HCC1954
How it was run: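 Cells allowed to adhere 2-4 h, then exposed to 5-fold serial dilutions of compound for 120 h at 37 °C, at least in duplicate. Viability read by CellTiter-Glo 2.0 and normalized to untreated controls. IC50 derived from 4-parameter logistic regression.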

[2] = system: T47D cells; test: Cell viability (Cell Titer Glo 2.0) in T47D cells, 120 hours; type: cell-based
Procedure: HCC1954 breast ductal carcinoma and T47D cells (ATCC, Manassas, VA, USA) were seeded into 384-well white-walled culture plates and allowed to adhere for 2-4 hours. Cells were then treated at least in duplicate by addition of 5-fold serially diluted test articles prepared at 2× final concentration and incubated at 37° C. for 120 hours. Cell viability following treatment was determined by Cell Titer Glo 2.0 Assay (Promega, Madison, WI, USA) and normalized to non-treated controls. Dose-response relationships were analyzed using GraphPad Prism (La Jolla, CA, USA), and IC50 values were derived from non-linear regression analyses using a 4-parameter logistic equation.

[3] = N-methylated analogs 1,2-/1,3-/1,4-NH2, relative to the 1,3-NH2 analog (=1)
[4] = NCH3-amide compared to its NH-amide analog (=1)

| SMILES | IC50 [1] [nM] | IC50 (fold difference) HCC1954 [1, 3] [fold difference] | IC50 (fold difference) HCC1954 [1, 4] [fold difference] | IC50 (fold difference) T47D [2, 3] [fold difference] | IC50 (fold difference) T47D [2, 4] [fold difference] |
| --- | --- | --- | --- | --- | --- |
| CC[C@H](C)[C@@H]([C@@H](CC(=O)N1CCC[C@H]1[C@H](OC)[C@@H](C)C(=O)N(C)CCc1ccc(N)cc1)OC)N(C)C(=O)[C@@H](NC(=O)[C@H](C(C)C)N(C)C)C(C)C [Compound 19, (S)-N-((3R,4S,5S)-1-((S)-2-((1R,2R)-3-((4-aminophenethyl)(methyl)amino)-1-methoxy-2-methyl-3-oxopropyl)pyrrolidin-1-yl)-3-methoxy-5-methyl-1-oxoheptan-4-yl)-2-((S)-2-(dimethylamino)-3-methylbutanamido)-N,3-dimethylbutanamide] | < 5 | 2.1 | 2.3 | 3.8 | 6.9 |
| CC[C@H](C)[C@@H]([C@@H](CC(=O)N1CCC[C@H]1[C@H](OC)[C@@H](C)C(=O)NCCc1cccc(N)c1)OC)N(C)C(=O)[C@@H](NC(=O)[C@H](C(C)C)N(C)C)C(C)C [Compound 20, (S)-N-((3R,4S,5S)-1-((S)-2-((1R,2R)-3-((3-aminophenethyl)amino)-1-methoxy-2-methyl-3-oxopropyl)pyrrolidin-1-yl)-3-methoxy-5-methyl-1-oxoheptan-4-yl)-2-((S)-2-(dimethylamino)-3-methylbutanamido)-N,3-dimethylbutanamide] | – | – | 1 | – | 1 |
| CC[C@H](C)[C@@H]([C@@H](CC(=O)N1CCC[C@H]1[C@H](OC)[C@@H](C)C(=O)NCCc1ccccc1N)OC)N(C)C(=O)[C@@H](NC(=O)[C@H](C(C)C)N(C)C)C(C)C [Compound 21, (S)-N-((3R,4S,5S)-1-((S)-2-((1R,2R)-3-((2-aminophenethyl)amino)-1-methoxy-2-methyl-3-oxopropyl)pyrrolidin-1-yl)-3-methoxy-5-methyl-1-oxoheptan-4-yl)-2-((S)-2-(dimethylamino)-3-methylbutanamido)-N,3-dimethylbutanamide] | – | – | 1 | – | 1 |
| CC[C@H](C)[C@@H]([C@@H](CC(=O)N1CCC[C@H]1[C@H](OC)[C@@H](C)C(=O)NCCc1ccc(N)cc1)OC)N(C)C(=O)[C@@H](NC(=O)[C@H](C(C)C)N(C)C)C(C)C [Compound 22, (S)-N-((3R,4S,5S)-1-((S)-2-((1R,2R)-3-((4-aminophenethyl)amino)-1-methoxy-2-methyl-3-oxopropyl)pyrrolidin-1-yl)-3-methoxy-5-methyl-1-oxoheptan-4-yl)-2-((S)-2-(dimethylamino)-3-methylbutanamido)-N,3-dimethylbutanamide] | – | – | 1 | – | 1 |
| CC[C@H](C)[C@@H]([C@@H](CC(=O)N1CCC[C@H]1[C@H](OC)[C@@H](C)C(=O)N(C)CCc1ccc(N)cc1)OC)N(C)C(=O)[C@@H](NC(=O)[C@H](C)N(C)C)C(C)C [Compound 26, (S)-N-((3R,4S,5S)-1-((S)-2-((1R,2R)-3-((4-aminophenethyl)(methyl)amino)-1-methoxy-2-methyl-3-oxopropyl)pyrrolidin-1-yl)-3-methoxy-5-methyl-1-oxoheptan-4-yl)-2-((S)-2-(dimethylamino)propanamido)-N,3-dimethylbutanamide] | 5 to 10 | 4.2 | – | 12.7 | – |
